Results taken from publication PMC1448180, “Small-molecule and mutational analysis of allosteric Eg5 inhibition by monastrol” (BMC Chemical Biology, 2006).
Numbering of substitutions follows the chain as printed. Read-outs that look alike come from different tables or passages of the source.

Assays:
hEg5-367H = target: T1, hEg5-367H (Homo sapiens, UniProt P52732); test: ATP hydrolysis by recombinant human Eg5 motor domain (NADH-enzyme coupled assay); type: biochemical; conditions: for Activity as Eg5 inhibitor, in words: authors' assays
T1 construct: motor domain (amino acid residues 1–367) of human Eg5; His6 (C); made in house
T1 sequence (P52732 1-367): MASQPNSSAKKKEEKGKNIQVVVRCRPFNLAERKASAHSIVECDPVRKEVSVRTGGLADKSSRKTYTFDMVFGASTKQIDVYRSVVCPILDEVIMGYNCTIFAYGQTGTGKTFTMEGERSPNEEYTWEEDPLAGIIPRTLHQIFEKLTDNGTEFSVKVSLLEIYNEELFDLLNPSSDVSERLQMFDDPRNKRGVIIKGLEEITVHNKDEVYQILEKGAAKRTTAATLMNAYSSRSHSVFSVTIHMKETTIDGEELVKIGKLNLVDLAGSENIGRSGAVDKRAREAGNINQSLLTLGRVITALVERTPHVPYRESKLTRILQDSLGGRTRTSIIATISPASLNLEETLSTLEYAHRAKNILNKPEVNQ
Protocol: (§1) Figure 2 Structure-activity relationship of monastrol derivatives. (A) Scheme depicting the Biginelli condensation, a one-pot reaction for preparing monastrol derivatives. […] Each data point is the average of three independent experiments. […] Each cell-based assay was performed in duplicate.
We used a modified PCR mutagenesis protocol to introduce mutations into hEg5-367H, a plasmid encoding the C-terminally His6-tagged motor domain (amino acid residues 1–367) of human Eg5. The wild-type and mutant proteins were expressed and purified using Ni-NTA affinity chromatography and concentrated to between 3 and 10 mg/ml protein as described.
(§2) ATP hydrolysis by recombinantly expressed kinesin motor domains was measured using an NADH-enzyme coupled assay. ATP hydrolysis was measured in KC25 buffer supplemented with 5 μM taxol, 1 mM ATP-KOH (pH 7.0), the appropriate concentration of motor domain, and the appropriate concentrations of taxol-polymerized microtubules.

BS-C-1 cells = test: Monoaster formation in tissue culture cells (manual count of mitotic cells); type: cell-based, green monkey; conditions: Chlorocebus sabaeus, read-out: Cells: monoaster formation score (drug concentration with roughly equal monastral and bipolar spindles)
Protocol: as §1
Conditions for growing the following cell lines are as described: D. rerio AB9 (37), D. melanogaster KC167 [38], and BS-C-1 green monkey kidney cells. For immunofluorescence microscopy, cells were grown on 12 mm circular coverslips to 30 % confluence, treated medium supplemented with drug and 0.2% DMSO, or a DMSO alone, for 6 hours, fixed with formaldehyde, and stained for DNA and microtubules, as described. D. melanogaster KC167 cells were cultured in Schneider's Drosophila Medium (GIBCO) whereas D. rerio AB9 cells and BS-C-1 green monkey kidney cells were cultured at 37°C in Dulbecco's Minimal medium in the presence of 10 % heat inactivated fetal calf serum.

hEg5-367H (L214T) = target: T2, hEg5-367H (L214T) (Homo sapiens, UniProt P52732, L214T); test: ATP hydrolysis by Eg5 motor domain mutant L214T; type: biochemical; conditions: data not shown
T2 construct: motor domain (amino acid residues 1–367) of human Eg5; His6 (C); made in house
T2 sequence (P52732 1-367 L214T): T1 sequence (P52732 1-367) with L214T
Source text: Figure 4 Mutagenesis of the monastrol binding site in human Eg5. (A) Design of mutations in the human Eg5 motor domain. Amino acid side chains that are not conserved between Eg5 and conventional kinesin were targeted, either introducing chimeric or rationally designed mutations (asterix for targeted point mutants) to test the contribution of residues to the drug-sensitivity of Eg5. (B) Steady-state enzymatic parameters for engineered human Eg5 motor domain mutants. Steady-state ATP hydrolysis by Eg5 was measured using an NADH-enzyme coupled assay varying the concentration of ATP, microtubules, or monastrol to obtain the microtubule concentration for half-maximal stimulation (K0.5MT), the maximal rate of microtubule-stimulated ATP hydrolysis (kcat), and the concentration of monastrol that inhibits basal ATP hydrolysis by 50 % (IC50), as described.
We used a modified PCR mutagenesis protocol to introduce mutations into hEg5-367H, a plasmid encoding the C-terminally His6-tagged motor domain (amino acid residues 1–367) of human Eg5. […]
as §2

Klp61F-364H = target: T3, Klp61F-364H (Drosophila melanogaster, UniProt P46863); test: ATP hydrolysis by Klp-61F motor domain (NADH-enzyme coupled assay); type: biochemical, D. melanogaster
T3 construct: His6 (C); made in house; host or cells: vector pRSETa
T3 sequence (P46863 1-364): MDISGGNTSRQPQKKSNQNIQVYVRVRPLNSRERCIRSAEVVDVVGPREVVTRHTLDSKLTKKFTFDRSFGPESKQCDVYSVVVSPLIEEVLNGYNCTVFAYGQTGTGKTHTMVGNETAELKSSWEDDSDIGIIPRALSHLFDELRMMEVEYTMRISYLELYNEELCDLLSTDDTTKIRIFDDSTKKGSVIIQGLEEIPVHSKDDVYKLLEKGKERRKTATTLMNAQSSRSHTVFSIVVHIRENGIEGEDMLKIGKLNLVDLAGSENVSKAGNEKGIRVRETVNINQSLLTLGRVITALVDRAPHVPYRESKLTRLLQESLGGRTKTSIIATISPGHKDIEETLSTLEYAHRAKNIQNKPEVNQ
Protocol: Each data point is the average of three independent experiments.
as §2

Eg5 = conditions: cited from earlier work
[1] = 500 nM hEg5-367H, KC25 buffer, 1 mM ATP-KOH (pH 7.0), 1 μM taxol-stabilized microtubules
[2] = BSC-1, BS-C-1 cells, 6 hours treatment, duplicate
[3] = 500 nM hEg5-367H, KC25 buffer, 1 mM ATP-KOH (pH 7.0), 1 μM taxol-stabilized microtubules, read-out: IC50 (μM), inhibition of ATP hydrolysis by Eg5 motor domain

Row | SMILES | IC50 (μM), inhibition of ATP hydrolysis by Eg5 motor domain (hEg5-367H; [1]) | EC50 (BS-C-1 cells; BSC-1, 6 h) [µM] | IC50 (hEg5-367H) [µM] | other results
1 | CCOC(=O)C1=C(C(C)C)NC(=S)NC1c1cccc(O)c1 (centres unmarked) [Derivative 6, ethyl 6-isopropyl-4-(3-hydroxyphenyl)-2-thioxo-1,2,3,4-tetrahydropyrimidine-5-carboxylate] | Not Inhib. | > 200 | – | –
2 | CCOC(=O)C1=C(C)NC(=S)NC1c1cccc(Br)c1 (centres unmarked) [Derivative 4e, ethyl 6-methyl-4-(3-bromophenyl)-2-thioxo-1,2,3,4-tetrahydropyrimidine-5-carboxylate] | – | – | – | Activity as Eg5 inhibitor, in words (hEg5-367H): completely inactive
3 | CC1=C(C(=O)OCc2ccccc2)C(c2cccc(O)c2)NC(=S)N1 (centres unmarked) [Derivative 5c, benzyl 6-methyl-4-(3-hydroxyphenyl)-2-thioxo-1,2,3,4-tetrahydropyrimidine-5-carboxylate] | – | 50 to 200 | 21 | –
4 | CCOC(=O)C1=C(C)NC(=O)NC1c1cccc(O)c1 (centres unmarked) [Derivative 2, ethyl 6-methyl-4-(3-hydroxyphenyl)-2-oxo-1,2,3,4-tetrahydropyrimidine-5-carboxylate] | Not Inhib. | – | – | Activity as Eg5 inhibitor, in words (hEg5-367H): completely inactive; EC50 (BS-C-1 cells; [2]): > 200 µM; Drug sensitivity of L214T mutant, in words (hEg5-367H (L214T)): resistant
5 | CCOC(=O)C1=C(C)NC(=S)NC1c1cccc(OC)c1 (centres unmarked) [Derivative 4d, ethyl 6-methyl-4-(3-methoxyphenyl)-2-thioxo-1,2,3,4-tetrahydropyrimidine-5-carboxylate] | Not Inhib. | > 200 | – | –
6 | CCOC(=O)C1=C(C)NC(=S)N[C@H]1c1cccc(O)c1 [(S)-monastrol, reference compound] | – | – | 6.1 ± 0.7 | IC50 (Klp61F-364H): 230 ± 4 µM
7 | CC(=O)C1=C(C)NC(=S)NC1c1cccc(O)c1 (centres unmarked) [Derivative 5a, methyl 6-methyl-4-(3-hydroxyphenyl)-2-thioxo-1,2,3,4-tetrahydropyrimidine-5-ketone] | – | 50 to 200 | 25 | –
8 | CCOC(=O)C1=C(C)N(C)C(=S)NC1c1cccc(O)c1 (centres unmarked) [Derivative 1, ethyl 6-methyl-4-(3-hydroxyphenyl)-2-thioxo-1-methyl-1,2,3,4-tetrahydropyrimidine-5-carboxylate] | – | < 50 | 3.3 | –
9 | CCOC(=O)C1=C(C)NC(=S)NC1c1ccccc1 (centres unmarked) [Derivative 4a, ethyl 6-methyl-4-phenyl-2-thioxo-1,2,3,4-tetrahydropyrimidine-5-carboxylate] | – | – | – | IC50 (hEg5-367H; [3]): > 200 µM; EC50 (BS-C-1 cells; [2]): > 200 µM
10 | CCOC(=O)C1=C(C)NC(=S)NC1c1ccc(O)cc1 (centres unmarked) [Derivative 4b] | Not Inhib. | > 200 | – | –
11 | CC1=C(C(=O)OCC(C)C)C(c2cccc(O)c2)NC(=S)N1 (centres unmarked) [Derivative 5b, isobutyl 6-methyl-4-(3-hydroxyphenyl)-2-thioxo-1,2,3,4-tetrahydropyrimidine-5-carboxylate] | – | – | – | IC50 (hEg5-367H; [3]): 3.8 µM; EC50 (BS-C-1 cells; [2]): < 50 µM
12 | CCOC(=O)C1=C(C)NC(=S)NC1c1cccc(F)c1 (centres unmarked) [Derivative 4c, ethyl 6-methyl-4-(3-fluorophenyl)-2-thioxo-1,2,3,4-tetrahydropyrimidine-5-carboxylate] | Not Inhib. | > 200 | – | –
13 | N[C@@H](CSC(c1ccccc1)(c1ccccc1)c1ccccc1)C(=O)O [S-trityl cysteine] | – | – | – | Potency relative to monastrol (Eg5): more potent than monastrol
